{"source": "patent US10988477B2", "about": "(Merck Patent GmbH, priority 2018, dated 2021)", "data": [{"molecular_target": "GCN2 kinase (Homo sapiens, UniProt Q9P2K8)", "sequence (Q9P2K8 whole entry)": "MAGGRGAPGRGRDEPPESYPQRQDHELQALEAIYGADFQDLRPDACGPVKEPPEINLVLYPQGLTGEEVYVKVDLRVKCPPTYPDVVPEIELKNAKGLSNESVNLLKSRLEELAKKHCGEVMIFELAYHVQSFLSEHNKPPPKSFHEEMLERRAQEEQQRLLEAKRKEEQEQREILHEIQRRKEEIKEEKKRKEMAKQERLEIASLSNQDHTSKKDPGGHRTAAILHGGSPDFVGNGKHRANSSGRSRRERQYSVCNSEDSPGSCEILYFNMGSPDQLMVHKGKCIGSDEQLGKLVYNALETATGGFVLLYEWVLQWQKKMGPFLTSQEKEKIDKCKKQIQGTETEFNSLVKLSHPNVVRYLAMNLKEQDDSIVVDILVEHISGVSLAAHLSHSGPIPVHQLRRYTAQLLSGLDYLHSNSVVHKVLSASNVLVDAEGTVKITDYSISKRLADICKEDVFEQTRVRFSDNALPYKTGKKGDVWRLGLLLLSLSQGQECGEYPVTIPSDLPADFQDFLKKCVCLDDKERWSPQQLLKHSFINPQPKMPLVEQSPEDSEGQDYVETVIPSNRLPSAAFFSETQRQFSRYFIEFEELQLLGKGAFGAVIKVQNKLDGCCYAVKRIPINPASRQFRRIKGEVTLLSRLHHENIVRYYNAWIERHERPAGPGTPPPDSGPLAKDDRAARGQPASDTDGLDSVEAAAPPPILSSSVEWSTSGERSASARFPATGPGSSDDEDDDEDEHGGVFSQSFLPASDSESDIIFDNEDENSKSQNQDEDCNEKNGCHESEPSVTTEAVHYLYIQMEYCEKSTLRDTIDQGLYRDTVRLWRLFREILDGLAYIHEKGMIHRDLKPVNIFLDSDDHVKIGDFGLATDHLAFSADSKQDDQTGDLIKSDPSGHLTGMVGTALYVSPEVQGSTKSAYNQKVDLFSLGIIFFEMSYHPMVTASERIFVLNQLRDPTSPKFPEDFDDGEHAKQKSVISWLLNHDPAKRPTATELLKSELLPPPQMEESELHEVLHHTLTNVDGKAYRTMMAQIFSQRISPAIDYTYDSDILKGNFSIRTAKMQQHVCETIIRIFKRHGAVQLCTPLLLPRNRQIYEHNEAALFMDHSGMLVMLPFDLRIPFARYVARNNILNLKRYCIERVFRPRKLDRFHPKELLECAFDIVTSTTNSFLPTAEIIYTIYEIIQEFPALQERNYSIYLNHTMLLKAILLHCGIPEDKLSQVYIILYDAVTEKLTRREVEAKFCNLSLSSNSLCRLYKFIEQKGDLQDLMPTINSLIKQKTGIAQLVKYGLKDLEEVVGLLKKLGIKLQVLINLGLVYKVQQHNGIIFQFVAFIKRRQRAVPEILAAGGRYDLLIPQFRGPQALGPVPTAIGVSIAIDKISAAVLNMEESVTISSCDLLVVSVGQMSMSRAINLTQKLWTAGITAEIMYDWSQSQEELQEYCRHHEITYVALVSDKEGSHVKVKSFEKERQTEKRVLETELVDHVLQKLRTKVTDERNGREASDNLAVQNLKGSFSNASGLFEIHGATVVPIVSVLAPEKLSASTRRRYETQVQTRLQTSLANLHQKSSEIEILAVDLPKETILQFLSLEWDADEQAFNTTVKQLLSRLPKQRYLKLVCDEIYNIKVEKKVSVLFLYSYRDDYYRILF", "experiment": "GCN2 enzyme inhibition assay (Transcreener ADP2 fluorescence polarization)", "assay_type": "biochemical", "details": "Enzyme activity for compounds of Formula IV; Ki(app), 280 μM ATP, 25° C.", "summary_of_the_method": "(§1)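 Inhibition of 4 nM GCN2 was measured with compound up to 8 μM final, ATP 280 μM and (RS)7 peptide 200 μM over a 1 h, 25 °C reaction. ADP FP readout; IC50 and Ki(app) calculated from percent inhibition.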", "units": {"Ki": "nM"}, "values": [{"smiles": "CS(=N)(=O)CC1CCCN(c2ccnc(-c3cnc4cnc(C(F)F)cn34)n2)C1", "note": "(single isomer, unassigned) [IV-338, ((1-(2-(6-(Difluoromethyl)imidazo[1,2-a]pyrazin-3-yl)pyrimidin-4-yl)piperidin-3-yl)methyl)(imino)(methyl)-λ^6-sulfanone]", "Ki": "100 to 1000"}, {"smiles": "Clc1cn2c(-c3nccc(N4CCNC(c5cn[nH]c5)C4)n3)cnc2cn1", "note": "(single isomer, unassigned) [IV-238, 3-(4-(3-(1H-Pyrazol-4-yl)piperazin-1-yl)pyrimidin-2-yl)-6-chloroimidazo[1,2-a]pyrazine]", "Ki": "10 to 100"}, {"smiles": "FC(F)(F)c1cn2c(-c3nccc(N4CCC(C5CCOCC5)C4)n3)cnc2cn1", "note": "(stereo not shown) [IV-507, 3-(4-(3-(Tetrahydro-2H-pyran-4-yl)pyrrolidin-1-yl)pyrimidin-2-yl)-6-(trifluoromethyl)imidazo[1,2-a]pyrazine]", "Ki": "100 to 1000"}, {"smiles": "FC(F)(F)c1cn2c(-c3nccc(N4CCC(c5cc[nH]n5)C4)n3)cnc2cn1", "note": "(stereo not shown) [IV-457, 3-(4-(3-(1H-Pyrazol-3-yl)pyrrolidin-1-yl)pyrimidin-2-yl)-6-(trifluoromethyl)imidazo[1,2-a]pyrazine]", "Ki": "100 to 1000"}, {"smiles": "CC(=O)N1CCN(c2ccnc(-c3cnc4cnc(-c5cc[nH]n5)cn34)n2)CC1", "note": "[IV-203, 1-(4-(2-(6-(1H-Pyrazol-3-yl)imidazo[1,2-a]pyrazin-3-yl)pyrimidin-4-yl)piperazin-1-yl)ethan-1-one]", "Ki": "10 to 100"}, {"smiles": "CC(=O)N1CCCN(c2ccnc(-c3cnc4cnc(C(N)=O)cn34)n2)CC1", "note": "[IV-190, 3-(4-(4-Acetyl-1,4-diazepan-1-yl)pyrimidin-2-yl)imidazo[1,2-a]pyrazine-6-carboxamide]", "Ki": "100 to 1000"}, {"smiles": "CC1CC(CS(C)(=N)=O)C(C)N(c2ccnc(-c3cnc4cnc(C(F)F)cn34)n2)C1", "note": "(single isomer, unassigned) [IV-367, ((1-(2-(6-(Difluoromethyl)imidazo[1,2-a]pyrazin-3-yl)pyrimidin-4-yl)-2,5-dimethylpiperidin-3-yl)methyl)(imino)(methyl)-λ^6-sulfanone]", "Ki": "100 to 1000"}, {"smiles": "CC1C(c2cn[nH]c2)OCCN1c1ccnc(-c2cnc3cnc(Cl)cn23)n1", "note": "(single isomer, unassigned) [IV-316, 4-(2-(6-Chloroimidazo[1,2-a]pyrazin-3-yl)pyrimidin-4-yl)-3-methyl-2-(1H-pyrazol-4-yl)morpholine]", "Ki": "100 to 1000"}, {"smiles": "FC(F)(F)c1cn2c(-c3nccc(N4CCC(c5cccnc5)C4)n3)cnc2cn1", "note": "(stereo not shown) [IV-646, 3-(4-(3-(Pyridin-3-yl)pyrrolidin-1-yl)pyrimidin-2-yl)-6-(trifluoromethyl)imidazo[1,2-a]pyrazine]", "Ki": "10 to 100"}, {"smiles": "C[S+]([O-])CC1CCN(c2ccnc(-c3cnc4cnc(C(F)(F)F)cn34)n2)C1", "note": "(stereo not shown) [IV-603, 3-(4-(3-((Methylsulfinyl)methyl)pyrrolidin-1-yl)pyrimidin-2-yl)-6-(trifluoromethyl)imidazo[1,2-a]pyrazine]", "Ki": "100 to 1000"}, {"smiles": "COCC1CN(c2ccnc(-c3cnc4cnc(C(F)(F)F)cn34)n2)CCO1", "note": "(stereo not shown) [IV-588, 2-(Methoxymethyl)-4-(2-(6-(trifluoromethyl)imidazo[1,2-a]pyrazin-3-yl)pyrimidin-4-yl)morpholine]", "Ki": "100 to 1000"}, {"smiles": "Brc1cn2c(-c3nccc(N4CCNC(c5c[nH]cn5)C4)n3)cnc2cn1", "note": "(stereo not shown) [IV-348, 3-(4-(3-(1H-Imidazol-4-yl)piperazin-1-yl)pyrimidin-2-yl)-6-bromoimidazo[1,2-a]pyrazine]", "Ki": "10 to 100"}, {"smiles": "Fc1n[nH]cc1C1CCCN(c2ccnc(-c3cnc4cnc(C(F)(F)F)cn34)n2)C1", "note": "(stereo not shown) [IV-473, 3-(4-(3-(5-Fluoro-1H-pyrazol-4-yl)piperidin-1-yl)pyrimidin-2-yl)-6-(trifluoromethyl)imidazo[1,2-a]pyrazine]", "Ki": "< 10"}, {"smiles": "CC1(C(N)=O)CCCN(c2ccnc(-c3cnc4cnc(C(F)(F)F)cn34)n2)C1", "note": "(stereo not shown) [IV-539, 3-Methyl-1-(2-(6-(trifluoromethyl)imidazo[1,2-a]pyrazin-3-yl)pyrimidin-4-yl)piperidine-3-carboxamide]", "Ki": "100 to 1000"}, {"smiles": "CC1CN(c2ccnc(-c3cnc4cnc(C(F)(F)F)cn34)n2)CC1N1CCOCC1", "note": "(stereo not shown) [IV-569, 4-(4-Methyl-1-(2-(6-(trifluoromethyl)imidazo[1,2-a]pyrazin-3-yl)pyrimidin-4-yl)pyrrolidin-3-yl)morpholine]", "Ki": "100 to 1000"}, {"smiles": "NCC1CN(c2ccnc(-c3cnc4cnc(C(F)(F)F)cn34)n2)CCO1", "note": "(stereo not shown) [IV-489]", "Ki": "100 to 1000"}, {"smiles": "FC(F)(F)c1cn2c(-c3nccc(N4CCCCCC4)n3)cnc2cn1", "note": "[IV-429, 3-(4-(Azepan-1-yl)pyrimidin-2-yl)-6-(trifluoromethyl)imidazo[1,2-a]pyrazine]", "Ki": "100 to 1000"}, {"smiles": "OC1CCN(c2ccnc(-c3cnc4cnc(C(F)(F)F)cn34)n2)C1", "note": "(stereo not shown) [IV-433, 1-(2-(6-(Trifluoromethyl)imidazo[1,2-a]pyrazin-3-yl)pyrimidin-4-yl)pyrrolidin-3-ol]", "Ki": "100 to 1000"}, {"smiles": "CNS(=O)(=O)C1CCCN(c2ccnc(-c3cnc4cnc(C(N)=O)cn34)n2)C1", "note": "(stereo not shown) [IV-251, 3-(4-(3-(N-Methylsulfamoyl)piperidin-1-yl)pyrimidin-2-yl)imidazo[1,2-a]pyrazine-6-carboxamide]", "Ki": "100 to 1000"}]}, {"molecular_target": "GCN2 kinase (Homo sapiens, UniProt Q9P2K8)", "experiment": "GCN2 enzyme inhibition assay (Transcreener ADP2 fluorescence polarization)", "assay_type": "biochemical", "details": "compounds of Formula II; 280 μM ATP, 4 nM GCN2 kinase", "summary_of_the_method": "as §1", "units": {"Ki": "nM", "IC50": "nM"}, "values": [{"smiles": "CC1CC(CNS(C)(=O)=O)CN(c2cc(-c3cnc4ccc(C(F)F)nn34)ncn2)C1C", "note": "(stereo not shown) [II-592, N-((1-(6-(6-(Difluoromethyl)imidazo[1,2-b]pyridazin-3-yl)pyrimidin-4-yl)-5,6-dimethylpiperidin-3-yl)methyl)methanesulfonamide]", "Ki": "< 10"}, {"smiles": "CC1C(CNS(C)(=O)=O)N(C(C)(C)C)CCN1c1cc(-c2cnc3ccc(C(F)F)nn23)ncn1", "note": "(stereo not shown) [II-559, N-((1-(tert-Butyl)-4-(6-(6-(difluoromethyl)imidazo[1,2-b]pyridazin-3-yl)pyrimidin-4-yl)-3-methylpiperazin-2-yl)methyl)methanesulfonamide]", "Ki": "10 to 1000"}, {"smiles": "C[C@@H]1[C@H](CNS(C)(=O)=O)CCCN1c1cc(-c2cnc3ccc(C(F)F)nn23)ncn1", "note": "(stereo in doubt) [II-754, N-(((2R,3S)-1-(6-(6-(difluoromethyl)imidazo[1,2-b]pyridazin-3-yl)pyrimidin-4-yl)-2-methylpiperidin-3-yl)methyl)methanesulfonamide]", "IC50": "> 1000"}, {"smiles": "C[C@H]1CN(c2cc(-c3cnc4ccc(C(F)(F)F)nn34)ccn2)C[C@@H](c2nc(C3CC3)no2)O1", "note": "[II-743]", "Ki": "10 to 1000"}, {"smiles": "FC(F)c1ccc2ncc(-c3ccnc(N4CCCC(c5cn[nH]c5)C4)c3)n2n1", "note": "(stereo not shown) [II-750]", "Ki": "< 10"}, {"smiles": "O=S1(=O)CCCC1C1CCCN(c2cc(-c3cnc4ccc(C(F)F)nn34)ncn2)C1", "note": "(stereo not shown) [II-563, 2-(1-(6-(6-(Difluoromethyl)imidazo[1,2-b]pyridazin-3-yl)pyrimidin-4-yl)piperidin-3-yl)tetrahydrothiophene 1,1-dioxide]", "Ki": "10 to 1000"}, {"smiles": "CC1C(NS(C)(=O)=O)CCCN1c1cc(-c2cnc3ccc(C(F)F)nn23)ncn1", "note": "(stereo not shown) [II-603, N-(1-(6-(6-(Difluoromethyl)imidazo[1,2-b]pyridazin-3-yl)pyrimidin-4-yl)-2-methylpiperidin-3-yl)methanesulfonamide]", "Ki": "10 to 1000"}, {"smiles": "CS(=O)(=O)NCC1CC(C#N)CN(c2cc(-c3cnc4ccc(C(F)F)nn34)ncn2)C1", "note": "(stereo not shown)", "Ki": "10 to 1000"}, {"smiles": "[2H]C([2H])([2H])N1CCN(c2cc(-c3cnc4ccc(C(F)F)nn34)ncn2)C(C)C1CNS(C)(=O)=O", "note": "(stereo not shown) [II-562, N-((4-(6-(6-(Difluoromethyl)imidazo[1,2-b]pyridazin-3-yl)pyrimidin-4-yl)-3-methyl-1-(methyl-d3)piperazin-2-yl)methyl)methanesulfonamide]", "Ki": "< 10"}]}]}
